Measured values from the supplement of paper PMC11208160.

Assay: recombinant UMI read abundance after kanamycin selection (control-corrected) (log10(CPM+1)); higher = more efficient recombination; extreme values may be limits of the assay; sequences stand for … in AGTGCAGAGAAAATCGGCCAGTTTTCTCTGCCTGCAGTCCGCATGCCGTGGGACCCCTTGGGTTCTAACCTGTTGCCTAGATTTATGCAGCGGACTGCCTTTCTCCCAAAGTGATAAACCGG…AGGTTGGTTTCACT; site = the 11-nt donor
Method in brief: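 Pooled Escherichia coli screen of donor and donor-binding-loop pairs for the IS621 bridge recombinase. Each pair sits with a 12-nt UMI on a plasmid carrying a promoterless kanamycin gene. The library was co-electroporated with a target plasmid encoding a fixed target and T7-inducible recombinase, then plated with IPTG (0.07 mM) plus kanamycin, or unselected, each in two replicates. Recombinant UMIs were PCR-amplified across the donor–target junction and sequenced. Counts became CPM, averaged over replicates, scaled by control-derived factors and reported as log10(CPM+1).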
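Note: IS621 bridge recombinase in Escherichia coli cells against a fixed T5 target plasmid.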

Sequence	recombinant UMI read abundance (log10)
CGTGGAACATGGACCGGTTTTCCCGGTAATCCGTATTTGTT (site CGTGCAACTAA)	0.00967
CGTGGAACATGGACCGGTTTTCCCGGTAATCCGTATTTGTT (site CGTGGAACTAA)	1.72
CGTGGAACATGGACCGGTTTTCCCGGTAATCCGTATTTGTT (site CGTGGAACTAC)	0.303
CGTGGAACATGGACCGGTTTTCCCGGTAATCCGTATTTGTT (site CGTGGAACTAG)	0.951
CGTGGAACATGGACCGGTTTTCCCGGTAATCCGTATTTGTT (site CGTGGAACTAT)	0.403
CGTGGAACATGGACCGGTTTTCCCGGTAATCCGTATTTGTT (site CGTGGAACTCA)	0.251
CGTGGAACATGGACCGGTTTTCCCGGTAATCCGTATTTGTT (site CGTGGAACTGA)	0.938
CGTGGAACATGGACCGGTTTTCCCGGTAATCCGTATTTGTT (site CGTGGAACTTA)	0.841
CGTGGAACATGGACCGGTTTTCCCGGTAATCCGTATTTGTT (site CGTGGACCTAA)	0.071
CGTGGAACATGGACCGGTTTTCCCGGTAATCCGTATTTGTT (site CGTGGAGCTAA)	0.00766
CGTGGAACATGGACCGGTTTTCCCGGTAATCCGTATTTGTT (site CGTGGATCTAA)	0.524
CGTGGAACATGGACCGGTTTTCCCGGTAATCCGTATTTGTT (site CGTGGCACTAA)	0.0304
CGTGGAACATGGACCGGTTTTCCCGGTAATCCGTATTTGTT (site CGTGGGACTAA)	0.0232
CGTGGAACATGGACCGGTTTTCCCGGTAATCCGTATTTGTT (site CGTGGTACTAA)	0
CGTGGAACATGGACCGGTTTTCCCGGTAATCCGTATTTGTT (site CGTGTAACTAA)	0
CGTGGAACATGGACCGGTTTTCCCGGTAATCCGTATTTGTT (site CGTTGAACTAA)	0
CGTGGAACATGGACCGGTTTTCCCGGTAATCCGTATTTGTT (site CTTGGAACTAA)	0.0161
CGTGGAACATGGACCGGTTTTCCCGGTAATCCGTATTTGTT (site GGTGGAACTAA)	0.0165
CGTGGAACATGGACCGGTTTTCCCGGTAATCCGTATTTGTT (site TGTGGAACTAA)	0.0144
CGTGGACCATGGACCGGTTTTCCCGGTAATCCGTATTTGGG (site CGAGGACCTCC)	0.0168
CGTGGACCATGGACCGGTTTTCCCGGTAATCCGTATTTGGG (site CGCGGACCTCC)	0.00423
CGTGGACCATGGACCGGTTTTCCCGGTAATCCGTATTTGGG (site CGGGGACCTCC)	0.028
CGTGGACCATGGACCGGTTTTCCCGGTAATCCGTATTTGGG (site CGTGGACCTCC)	0.0154

Sequence	recombinant UMI read abundance (log10)
CGTGGGACATGGACCGGTTTTCCCGGTAATCCGTATTTGTT (site CGTGGAACTAA)	1.86
CGTGGGACATGGACCGGTTTTCCCGGTAATCCGTATTTGTT (site CGTGGCACTAA)	0.0102
CGTGGGACATGGACCGGTTTTCCCGGTAATCCGTATTTGTT (site CGTGGGACTAA)	1.79
CGTGGGACATGGACCGGTTTTCCCGGTAATCCGTATTTGTT (site CGTGGTACTAA)	0
CGTGGTTCATGGACCGGTTTTCCCGGTAATCCGTATTTGCG (site CGTGGTTCTCG)	2.1
CGTGTAACATGGACCGGTTTTCCCGGTAATCCGTATTTGCG (site CGTGTAACTCG)	1.78
CGTGTCACATGGACCGGTTTTCCCGGTAATCCGTATTTGGT (site CGTGTCACTAC)	1.31
CGTGTCGCATGGACCGGTTTTCCCGGTAATCCGTATTTGTG (site CGTGTCGCTCA)	0.701
CGTGTGTCATGGACCGGTTTTCCCGGTAATCCGTATTTGGA (site CGTGTGTCTTC)	1.86
CGTTAGACATGGACCGGTTTTCCCGGTAATCCGTATTTGCG (site CGTTAGACTCA)	0.0494
CGTTAGACATGGACCGGTTTTCCCGGTAATCCGTATTTGCG (site CGTTAGACTCC)	0.0162
CGTTAGACATGGACCGGTTTTCCCGGTAATCCGTATTTGCG (site CGTTAGACTCG)	1.85
CGTTAGACATGGACCGGTTTTCCCGGTAATCCGTATTTGCG (site CGTTAGACTCT)	0.911
CGTTAGCCATGGACCGGTTTTCCCGGTAATCCGTATTTGAG (site CGTTAGACTCT)	0.00766
CGTTAGCCATGGACCGGTTTTCCCGGTAATCCGTATTTGAG (site CGTTAGCCTCT)	0.184
CGTTAGCCATGGACCGGTTTTCCCGGTAATCCGTATTTGAG (site CGTTAGGCTCT)	0.00758
CGTTAGCCATGGACCGGTTTTCCCGGTAATCCGTATTTGAG (site CGTTAGTCTCT)	0.737
CGTTATACATGGACCGGTTTTCCCGGTAATCCGTATTTGAG (site CGTTAAACTCT)	0
CGTTATACATGGACCGGTTTTCCCGGTAATCCGTATTTGAG (site CGTTACACTCT)	0.0313
CGTTATACATGGACCGGTTTTCCCGGTAATCCGTATTTGAG (site CGTTAGACTCT)	0.0101
CGTTATACATGGACCGGTTTTCCCGGTAATCCGTATTTGAG (site CGTTATACTCT)	1.25
CGTTATCCATGGACCGGTTTTCCCGGTAATCCGTATTTGTC (site CGTTATCCTGA)	1.46
CGTTCATCATGGACCGGTTTTCCCGGTAATCCGTATTTGCC (site CGATCATCTAG)	0

Sequence	recombinant UMI read abundance (log10)
CGTTCATCATGGACCGGTTTTCCCGGTAATCCGTATTTGCC (site CGTTCATCTGG)	2.32
CGTTCATCATGGACCGGTTTTCCCGGTAATCCGTATTTGTG (site CGTTCATCTCA)	0.00491
CGTTCCCCATGGACCGGTTTTCCCGGTAATCCGTATTTGTG (site CGTTCCCCTCA)	0.365
CGTTCGACATGGACCGGTTTTCCCGGTAATCCGTATTTGTT (site CGATCGACTAA)	0.0104
CGTTCGACATGGACCGGTTTTCCCGGTAATCCGTATTTGTT (site CGCTCGACTAA)	0.0144
CGTTCGACATGGACCGGTTTTCCCGGTAATCCGTATTTGTT (site CGGTCGACTAA)	0.0244
CGTTCGACATGGACCGGTTTTCCCGGTAATCCGTATTTGTT (site CGTTCGACTAA)	0.0172
CGTTCGTCATGGACCGGTTTTCCCGGTAATCCGTATTTGCT (site CGATCATCTAG)	0
CGTTCGTCATGGACCGGTTTTCCCGGTAATCCGTATTTGCT (site CGTTCGTCTAG)	1.95
CGTTGAACATGGACCGGTTTTCCCGGTAATCCGTATTTGTT (site CGTAGAACTAA)	0.00276
CGTTGAACATGGACCGGTTTTCCCGGTAATCCGTATTTGTT (site CGTCGAACTAA)	0.0175
CGTTGAACATGGACCGGTTTTCCCGGTAATCCGTATTTGTT (site CGTGGAACTAA)	0.0247
CGTTGAACATGGACCGGTTTTCCCGGTAATCCGTATTTGTT (site CGTTGAACTAA)	0.623
CGTTGTGCATGGACCGGTTTTCCCGGTAATCCGTATTTGAG (site CGTTGTGCTCT)	1.77
CGTTTGGCATGGACCGGTTTTCCCGGTAATCCGTATTTGCC (site CGTTTGGCTAG)	0
CGTTTGGCATGGACCGGTTTTCCCGGTAATCCGTATTTGCC (site CGTTTGGCTCG)	0.0176
CGTTTGGCATGGACCGGTTTTCCCGGTAATCCGTATTTGCC (site CGTTTGGCTGG)	0
CGTTTGGCATGGACCGGTTTTCCCGGTAATCCGTATTTGCC (site CGTTTGGCTTG)	0
CTAATAGCATGGACCGGTTTTCCCGGTAATCCGTATTTGAT (site CTAATAGCTAT)	2.21
CTAATATCATGGACCGGTTTTCCCGGTAATCCGTATTTGTC (site CTAATATCTGA)	2.49
CTAATATCATGGACCGGTTTTCCCGGTAATCCGTATTTGTC (site CTAGTATCTGT)	1.1
CTAATCTCATGGACCGGTTTTCCCGGTAATCCGTATTTGAC (site CTAATCTCTGT)	2.44
